Source: patent publication US20140256638A1, “PEPTOID NEUTRALIZING AGENTS” (The Regents of the University of California, priority 2013, published 2014)

How the values were obtained:
[1] = Coatest heparin in vitro assay; cited from earlier work
proteases = conditions: physiological conditions; cited from earlier work
[2] = Isothermal Titration Calorimetry (ITC) of peptoid-heparin binding; conditions: for TΔS: calculated from binding constant and ΔH; for ΔS: calculated from ΔG and ΔH; for ΔG: calculated from ΔG=−RTlnKb
Description: For Table 3, binding constants and other thermodynamic parameters were determined for the chiral 12-mer analogs by ITC. The S12mer data represents 3 trials, and the R12mer represents 2 trials. Values for the parameters Kb, AH and N are obtained by fitting the titration curves. AG is calculated from ΔG=−RTlnKb and ΔS is calculated from […].
Isothermal Titration Calorimetry (“ITC”) was used to determine directly ΔH, the binding constant and stoichiometry, and ΔS was then calculated from the binding constant and ΔH for the binding reaction between heparin and the peptoids produced in this study. In a typical ITC experiment, peptoid in buffer solution was placed in the sample cell and an equivalent quantity of the same buffer solution was placed in the reference cell. Heparin in buffer solution was placed in the titration syringe. Heparin titrant was added to the sample cell in 10 μL aliquots with 210 sec. between aliquots.
FIG. 11 presents the isotherm for the endothermic reaction. The resulting integrated titration curve is given in FIG. 12 for a reaction between 0.20 mM peptoid in the sample cell and 0.25 mM heparin in the titration syringe.

[3] = Heparin Affinity Chromatography (HAC); type: binding; conditions: Table 4; heparin affinity column, gradient 0 to 1 M NaCl in pH 7.2, 50 mM sodium phosphate over 60 min, 0.65 mL/min
Description: The relative affinities of the peptoids in Table 2 for heparin were determined by heparin affinity chromatography (“HAC”). Peptoid solutions, typically 0.2 mM, were eluted by gradient elution; mobile phase A consisted of pH 7.2, 50 mM sodium phosphate buffer and mobile phase B consisted of the same buffer but with 1 M NaCl added. The flow rate was 0.65 mL/min and the gradient began with 100% mobile phase A and 0% mobile phase B, and ended at 60 min with 0% mobile phase A and 100% B although most of the peptoid runs were complete within 30 min or less.

[4] = Table 4, ITC, heparin titrated into peptoid in buffer
[5] = Table 3, ITC, S12mer 3 trials, R12mer 2 trials

Substance	ΔH ([2]; Table 4, ITC) [kcal/mol]	Kd [2, 4] [µM]	TΔS ([2]; Table 4, ITC)	HAC r.t. [3] [min]	other results
Ac-SRGKAKVKAKVKDQTK-NH2 (not fully specified; printed as Ac-SRGKAKVKAKVKDQTK-NH2) [L-HIPAP]					neutralizing heparin activity [1]: equally effective
Ac-SRGKAKVKAKVKDQTK-NH2 [D-HIPAP]					stability to proteases (proteases): more stable than L-HIPAP
Ac-SRGKAKVKAKVKDQTK-NH2 [L-HIPAP]					stability to proteases (proteases): more susceptible to degradation by proteases
H-[N(Arg)-N(Bu)-N(Spe)]2-NH2 [s6merG]	-2.862 ± 0.222	20.6 ± 0.8	2316 ± 32 cal/mol	13.5 ± 2.9	
H-[N(Arg)-N(Bu)-N(Spe)]-NH2 [s3merG]	-0.6325 ± 0.0085	140 ± 11	2026.4 ± 159 cal/mol	3.8 ± 0.3	
H-[N(Arg)-N(Pr)-N(Spe)]3-NH2 [s9merPrG]	-1.634 ± 0.043	5.6 ± 1.8	4639 ± 36 cal/mol	20.3 ± 0.6	
H-[N(Cad)-N(Bu)-N(Spe)]3-NH2 [s9merCad]	2.381 ± 0.029	11.7 ± 0.1	8989 ± 15 cal/mol	16.3 ± 0.6	
H-[N(Cad)G-N(Bu)-N(Spe)]3-NH2 [s9merCadG]	-0.2835 ± 0.027	5.5 ± 3.4	7500 ± 32 cal/mol	20.1 ± 0.5	
H-[N(Orn)-N(All)-N(Spe)]3-NH2 [s9merAll]	-0.931 ± 0.074	8.3 ± 3.2	4627 ± 41 cal/mol	20 ± 2.0	
H-[N(Orn)-N(Bu)-N(Rpe)]4-NH2 [r12mer]	1.278 ± 0.379	7.6 ± 4.2	5664 ± 2.5 cal/mol	18.5 ± 0.6	Kd [2, 5]: 7.57 µM; ΔH [2, 5]: 1.278 kcal/mol; ΔS ([2]; Table 3, ITC): 19.01 cal/mole ° C.; ΔG ([2]; Table 3, ITC): -6.956 kcal/mol
H-[N(Orn)-N(Bu)-N(Spe)]3-NH2 [s9mer]	0.814 ± 0.089	18.6 ± 3.2	7259 ± 45 cal/mol	14.1 ± 1.2	
H-[N(Orn)-N(Bu)-N(Spe)]-NH2 [s3mer]	0.3867 ± 0.237	164 ± 32	5057 ± 35 cal/mol	3.0 ± 0.6	
H-[N(Orn)-N(Et)-N(Spe)]3-NH2 [s9merEt]	0.8223 ± 0.034	10.9 ± 0.7	5140 ± 37 cal/mol	16.5 ± 0.5	
H-[N(Orn)-N(Me)-N(Spe)]3-NH2 [s9merMe]	1.654 ± 0.011	8.3 ± 2	3161 ± 76 cal/mol	18.1 ± 0.5	
H-[N(Orn)-N(Pr)-N(Spe)]3-NH2 [s9merPr]	3.555 ± 0.056	11.2 ± 0.7	1427 ± 2.6 cal/mol	16.5 ± 0.7	

More lines, in order of falling Kd [2, 4], values ahead:

ΔH ([2]; Table 4, ITC) [kcal/mol]	Kd [2, 4] [µM]	TΔS ([2]; Table 4, ITC)	Substance	HAC r.t. [3] [min]	other results
0.565 ± 0.064	44 ± 5	7748 ± 880 cal/mol	H-[N(Orn)-N(Bu)-N(Spe)]2-NH2 [s6mer]	9.61 ± 1.1	
3.305 ± 0.064	16.4 ± 11	10,000 ± 54 cal/mole	H-[N(Lys)-N(Bu)-N(Spe)]3-NH2 [s9merLys]	14.6 ± 0.2	
-0.6151 ± 0.135	5 ± 0.3	3948 ± 56 cal/mol	H-[N(Lys)G-N(Bu)-N(Spe)]3-N2 [s9merLysG]	20.6 ± 0.2	
-1.197 ± 0.071	4.76 ± 2.3	16.6 ± 1.7 cal/mol	H-[N(Arg)-N(Bu)-N(Spe)]3-NH2 [s9merG]	20.8 ± 0.8	
-2.176 ± 0.082	4.3 ± 2.2	3159 ± 115 cal/mol	H-[N(Arg)-N(Et)-N(Spe)]3-NH2 [s9merEtG]	21.5 ± 0.5	
1.733 ± 0.047	4.11 ± 0.6	9097 ± 30 cal/mol	H-[N(Orn)-N(Bu)-N(Spe)]4-NH2 [s12mer]	21.6 ± 0.6	relative binding affinity to heparin ([2]; ITC and HAC results, comparison in words): greater binding affinity; Kd [2, 5]: 4.11 µM; ΔH [2, 5]: 1.733 kcal/mol; ΔS ([2]; Table 3, ITC): 30.53 cal/mole ° C.; ΔG ([2]; Table 3, ITC): -6.309 kcal/mol
-0.167 ± 0.038	3.4 ± 0.4	7682 ± 43 cal/mol	H-[N(Orn)-N(Bu)-N(Spe)]4-NH2 [s12merG]	29.2 ± 1.0	
-0.545 ± 0.121	0.9 ± 0.4	2851 ± 1.4 cal/mol	H-[N(Orn)-N(Bz)-N(Spe)]3-NH2 [s9merBz]	29.3 ± 0.5	
-5.253 ± 0.105	0.14 ± 0.004	3992 ± 383 cal/mol	H-[N(Orn)-N(Orn)-N(Spe)]4-NH2 [s9merOrnOrn]	38.5 ± 5.0	enthalpy of reaction (sign) ([2]; ITC with heparin): exothermic
